The results in this text go back to patent US20060276393A1, “Novel compositions for preventing and treating neurodegenerative and blood coagulation disorders” (Sirtris Pharmaceuticals, Inc., priority 2005, published 2006).

Entries after “also recorded” stand apart in the source; their conditions may differ. Where only a bound is given, the exact number is not on record here.

One series concerns S. cerevisiae. Description: Yeast replicative lifespan. The series is classed as cell-based. As to the method:
Average lifespan for wild type, 22.9 generations, quercetin, 23.4; piceatannol. […]
All yeast strains were grown at 30° C. in complete yeast extract/bactopeptone, 2.0% (w/v) glucose (YPD) medium except where stated otherwise. Calorie restriction was induced in 0.5% glucose. Synthetic complete (SC) medium consisted of 1.67% yeast nitrogen base, 2% glucose, 40 mg/litre each of auxotrophic markers. SIR2 was integrated in extra copy and disrupted as described^5. Other strains are described elsewhere^26. For cellular deacetylation assays, HeLa S3 cells were used. U20S osteosarcoma and human embryonic kidney (HEK 293) cells were cultured adherently in Dulbecco's Modified Eagle's Medium (DMEM) containing 10% fetal calf serum (FCS) with 1.0% glutamine and 1.0% penecillin/streptomycin. HEK 293 overexpressing dominant negative SIRT1 H363Y was a gift of R. Frye (U. Pittsburgh).
Lifespan measurements were performed using PSY316AT MATα as previously described^35. All compounds for lifespan analyses were dissolved in 95% ethanol and plates were dried and used within 24 hours. Prior to lifespan analysis, cells were pre-incubated on their respective media for at least 15 hours. Following transfer to a new plate, cells were equilibrated on the medium for a minimum of 4 hours prior to micro-manipulating them. At least 30 cells were examined per experiment and each experiment was performed at least twice. Statistical significance of lifespan differences was determined using the Wilcoxon rank sum test. Differences are stated to be significant when the confidence is higher than 95%.

Another series has as its system HeLa S3 cells. As to the kind of experiment: Cellular deacetylase assay (FdL, TSA-insensitive signal). The series is classed as cell-based, human. As to conditions: 500 μM compound, 200 μM FdL, 1 μM TSA, 1 hour. The method, then:
FdL (200 μM) is added to growth media and cells incubated for 1-3 hours to allow FdL to enter the cells and the lysine-deacetylated product (deAc-FdL) to accumulate intracellularly. Cells are lysed with detergent in the presence of 1 μM TSA, 1 mM nicotinamide. Addition of the non-cell-permeable Developer (BIOMOL) releases a fluorophor, specifically from deAc-FdL. b, SIRT1 activating polyphenols can stimulate TSA-insensitive, FdL deacetylation by HeLa S3 cells. Cells were grown adherently in DMEM/10% FCS and treated for 1 hour with 200 μM FdL, 1 μM TSA and either vehicle (0.5% final DMSO, Control) or 500 μM of the indicated compound. Intracellular accumulation of deAc-FdL was then determined as described briefly in a. […] Lysates were prepared and analyzed as above. […]
Themed compound libraries (BIOMOL) were used for primary and secondary screening. […] In vitro fluorescence assay results were read in white ½-volume 96-well microplates (Coming Costar 3693) with a CytoFluor™. II fluorescence plate reader (PerSeptive Biosystems, Ex. 360 nm, Em. 460 nm, gain=85). HeLa cells were grown and the cellular deacetylation assays were performed and read, as above, but in full-volume 96-well microplates (Coming Costar 3595). […]

In a further series the target is T1, recombinant human SIRT1 (Homo sapiens, UniProt Q96EB6).
T1 sequence (Q96EB6 1-747): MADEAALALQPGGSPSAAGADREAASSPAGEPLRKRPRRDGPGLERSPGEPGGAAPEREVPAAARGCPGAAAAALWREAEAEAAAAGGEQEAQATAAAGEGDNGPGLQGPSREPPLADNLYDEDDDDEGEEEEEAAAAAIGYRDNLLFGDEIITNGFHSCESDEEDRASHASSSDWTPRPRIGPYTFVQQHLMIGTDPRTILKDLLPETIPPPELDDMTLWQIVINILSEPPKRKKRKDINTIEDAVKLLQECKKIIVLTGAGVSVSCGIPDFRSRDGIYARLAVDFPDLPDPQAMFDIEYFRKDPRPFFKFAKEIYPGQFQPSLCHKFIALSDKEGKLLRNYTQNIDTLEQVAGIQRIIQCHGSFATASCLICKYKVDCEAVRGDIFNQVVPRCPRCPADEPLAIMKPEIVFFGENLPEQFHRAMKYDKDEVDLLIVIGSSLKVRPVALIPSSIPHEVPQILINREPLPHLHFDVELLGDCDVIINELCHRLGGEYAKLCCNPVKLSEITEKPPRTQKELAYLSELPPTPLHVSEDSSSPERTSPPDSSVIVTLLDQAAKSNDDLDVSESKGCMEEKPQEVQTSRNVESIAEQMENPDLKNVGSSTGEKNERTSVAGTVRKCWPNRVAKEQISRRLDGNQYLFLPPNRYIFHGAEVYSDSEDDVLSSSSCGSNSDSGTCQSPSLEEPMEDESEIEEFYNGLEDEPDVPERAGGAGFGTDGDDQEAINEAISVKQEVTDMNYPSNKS
Description: SIRT1 fluorescent deacetylation assay (p53-382 acetylated peptide). The series is classed as biochemical. Particulars: 25 μM NAD+, 25 μM p53-382 acetylated peptide, compounds at 100 μM. The text has this: Lines represent non-linear least-squares fits to the Michaelis-Menten equation. […] Lines represent non-linear least-squares fits to the Michaelis-Menten equation. […] Error bars are standard errors of the mean.
To identify compounds that modulate SIRT1 activity, a number of small molecule libraries were screened using a fluorescent deacetylation assay in 96-well plates^26. The substrate used in the assay was a fluorogenic peptide based on the sequence encompassing the p53-K382 acetylation site, a known target of SIRT1 in vivo^20,21,27. […] The small molecule libraries included analogues of nicotinamide, ε-acetyl lysine, NAD^+, nucleotides, nucleotide analogues and purinergic ligands.
His6-tagged recombinant SIRT1 and GST-tagged recombinant Sir2 were prepared as previously described^26. From 0.1 to 1 μg of SIRT1 and 1.5 μg of Sir2 were used per deacetylation assay (in 50 μl total reaction) as previously described^26.
Themed compound libraries (BIOMOL) were used for primary and secondary screening. Most polyphenol compounds were dissolved at 10 mM in dimethylsulfoxide (DMSO) on the day of the assay. For water soluble compounds and negative controls, 1% v/v DMSO was added to the assay. […] Unless otherwise indicated all initial rate measurements were means of three or more replicates, obtained with single incubation times, at which point 5% or less of the substrate initially present had been deacetylated. Calculation of net fluorescence increases included subtraction of a blank value, which in the case of Sir2 was obtained by omitting the enzyme from the reaction and in the case of SIRT1 by adding an inhibitor (200 μM suramin or 1 mM nicotinamide) to the reaction prior to the acetylated substrate. […] All error bars represent the standard error of the mean.

The next series has as its system C. elegans. As to the kind of experiment: C. elegans lifespan. The series is classed as in vivo. As to conditions: N2 worms, E. coli as food; untreated 100%. As to the method:
Thus, the presence of resveratrol in the growth media of C. elegans extends their lifespan.
Bristol N2 (Caenorhabditis Genetics Center) was used as the wild-type strain. The sir-2.1 mutant strain was generated by backcrossing VC199 (sir-2.1(ok434)) to N2 four times. Cultures were grown on standard NGM media and maintained on E. coli strain OP50. For the lifespan assays, synchronized animals were transferred to treatment plates as young adults (2 d after hatching, day 0 of assay), and were transferred to fresh treatment plates every 2 days for the first 6 to 8 days of the assay. […] For some lifespan trials, heat-killed OP50 were used as a food source. OP50 cultures were heated to 65° C. for 30 minutes, then pelleted and resuspended in 1/10 volume in S Basal supplemented with 10 mM MgSO4. In all assays, worms were monitored daily for mortality by gently probing with a platinum pick. Assays were performed at 24° C. To assay worm feeding rates, worms at the indicated stages were placed on treatment plates (no FUdR) for 4-5 hours, then videoed for 1 minute using a Pixelink PL-662 camera. The frame rate was slowed and the pumping rate of the pharynx was counted. To assay fecundity, gravid hermaphrodites (5 per plate, raised from synchronized L1s on normal or treatment plates) were allowed to lay eggs on their respective media for 5 hours, and the total number of eggs was counted.

A short description of series [1]: Solution stability from SIRT1 fold-stimulation of aged stock solutions. The class given is physicochemical. Particulars: ethanol stock 2.5 mM, room temperature, nitrogen atmosphere. The text has this: The fold-stimulation (ratio to control) obtained with a compound diluted from an aged stock solution was compared to an identical dilution from a stock solution freshly prepared from the solid compound. “t1/2” is defined as the time required for the SIRT1 fold-stimulation of the compound from the aged solution to decay to one-half of that obtained from a freshly prepared solution. […] Stocks were aged by storage at room temperature, in glass vials, under a nitrogen atmosphere.

As to `O=C(/C=C/c1ccc(O)c(O)c1)c1ccc(O)cc1O` [butein, 3,4,2′,4′-Tetrahydroxychalcone], in the series on S. cerevisiae (10 μM), the “increase of average lifespan” value is 31% and the “maximum lifespan (in words)” value is on record as “significantly increased maximum lifespan”. This compound also displayed an Average lifespan in the series with S. cerevisiae (10 μM compound, 2% glucose medium, wild type untreated 22.9) of 35.5 generations. The “TSA-insensitive cellular deacetylation signal” value with HeLa S3 cells is listed as “no effect on the cellular signal”.
`CC(=O)Oc1cc(O)cc(/C=C/c2ccc(O)cc2)c1` [BML-221, 3,4′-Dihydroxy-5-acetoxy-trans-stilbene]: the “SIRT1 stimulating activity (in words)” value at recombinant human SIRT1 was “diminished in in vitro SIRT1 activating ability”. Besides, the “% change in yeast replicative lifespan relative to untreated organisms (10 μM)” value with S. cerevisiae (10 μM, 2% (w/v) glucose YPD, untreated 100%) worked out at 165%. The “% change in C. elegans lifespan relative to untreated organisms (100/500 μM)” value in the series on C. elegans is given as above 100%. Besides, in series [1], the “solution stability relative to resveratrol” value is recorded as “strongly increased; also recorded: vast improvement in solution stability relative to resveratrol”.
